From patent publication US11471425B2, “Pharmaceutical composition containing broussochalcone a as active ingredient for treatment of inflammatory bowel disease” (BIOPHARMARESEARCHLAB CO., LTD., priority 2017, dated 2022) come the findings set out here.

Structures are written as SMILES. Read-outs that look alike come from different tables or passages of the source.

Data set [1] has as its system ulcerative colitis-induced mice. Briefly: Disease activity index (DAI) in DSS-induced ulcerative colitis mice. Format: in vivo, C57BL/6J mice. As to conditions: 3% (w/v) DSS in drinking water from day 3; specimen orally at 100 μl/10 g bw; compared with control group. The protocol:
The normal group received a mixture of 9 ml of Koliphor EL (Sigma, USA) and 1 ml of DMSO at the same dose as the BA experimental group. The normal group was allowed to access water ad libitum during the experimental period.
The control group received a mixture of 9 ml of Koliphor EL (Sigma, USA) and 1 ml of DMSO at the same dose as the BA experimental group.
During the experimental period, the mice were caused to defecate once a day. Feces appearance was observed and fecal occult blood was observed using the Beckman Coulter Hemoccult Single Slides (Beckman Coulter, Inc., USA). The observation results were expressed in scores according to the criteria in Table 2.
Disease activity index (DAI)=(Fecal consistency+fecal color)/2

The test system is the same in data set [2]. Briefly: Colon length in DSS-induced ulcerative colitis mice. As to conditions: 3% (w/v) DSS from day 3; oral 100 μl/10 g bw; colon extracted on day 11. Format: in vivo, C57BL/6J mice. The protocol:
(§1) On day 11, the mice were sacrificed by intraperitoneal injection of Alfaxan (Jurox Pty Limited, Australia), and then the colon, which ranges from the cecum site to the site immediately before the anus, was extracted. After all colonic contents in the colon tissues were removed, some specimens were fixed in 4% (v/v) paraformaldehyde fixative for use as pathological specimens, and the other specimens were stored frozen at −80° C. for molecular biological analysis.

The nature of data set [3]: Changes in body weight of ulcerative colitis-induced mice. The data set is classed as in vivo, C57BL/6J mice. As to conditions: 3% (w/v) DSS from day 3; oral 100 μl/10 g bw; measured daily from day 0. The protocol: Since ulcerative colitis-induced animals lose weight, a symptom-alleviating effect was checked by measuring changes in body weight.
For the respective normal group, control group, positive control group, and BA experimental group prepared in Example 1, the body weight was measured using a precision balance at the start of the experiment (day 0), and changes in body weight were measured at daily intervals for comparison.

A further data set relates to myeloperoxidase (MPO). Briefly: Myeloperoxidase (MPO) activity in colon tissues of ulcerative colitis-induced mice. The data set is classed as in vivo, C57BL/6J mice. As to conditions: colon tissue, day 11; absorbance at 412 nm, average of three measurements. On the procedure:
as §1
For the mice for which ulcerative colitis had been induced by DSS, activity of MPO, an inflammatory indicator, was checked.
The colon tissues stored frozen in Example 3 were analyzed using the […] Colorimetric Activity Assay Kit (Sigma, USA), in which absorbance at a wavelength of 412 nm was measured three times to calculate an average value.

For data set [4], the system named is colon tissues of ulcerative colitis-induced mice. Nature of the data set: Histological analysis (H&E staining) of colon tissues of ulcerative colitis-induced mice. Format: in vivo, C57BL/6J mice. As to conditions: 4 μm paraffin sections, colon extracted on day 11. The protocol:
as §1
The colon tissues stored frozen in Example 3 were fixed in 4% paraformaldehyde for 48 hours and then washed with PBS. The fixed tissues were embedded in paraffin, cut into 4 μm thickness, and stained with hematoxylin and eosin. Then, the stained tissues were observed under a microscope.

Data set [5] in a line: Food intake by ulcerative colitis-induced mice. The following applies: 3% (w/v) DSS from day 3; oral 100 μl/10 g bw; measured daily, day 0 to day 11.
Excerpt: (§2) In addition, changes in body weight and food intake were observed by measuring the body weight and food intake at daily intervals from the start (day 0) to the end (day 11) of the animal experiment.
(§3) 7-Week-old C57BL/6J mice were purchased from Central Lab. Animal Inc. (Seoul, Korea) and acclimatized for 7 days to an experimental environment, which was maintained at constant humidity and constant temperature under a 12-hour light/dark cycle, while allowing them to access solid feed and water ad libitum. After 7 days of acclimatization period, the mice were divided into normal group, control group, positive control group (sulfasalazine), and BA experimental group (broussochalcone A) (Table 1).
(§4) Sulfasalazine (Sigma, USA) was quantified at 150 mg and dissolved in 1 ml of DMSO to prepare an SUL solution. 9 ml of Koliphor EL was diluted in PBS to prepare a 10% (v/v) Koliphor solution. The SUL solution was mixed with 9 ml of 10% (v/v) Koliphor solution to prepare an SUL specimen. Then, the SUL specimen was quantified and orally administered at 100 μl/10 g·body weight (bw) to the positive control group. […]
(§5) Broussochalcone A (Natural Products Bank, Korea) was quantified at 20 mg and dissolved in 1 ml of DMSO to prepare a BA solution. […] Then, the BA specimen was quantified and orally administered at 100 μl/10 g·body weight (bw) to the BA experimental group. […]
The conditions of data set [6]: mouse, in vivo, po.
Excerpt: as §2, §3, §4, §5

As for `CC(C)=CCc1cc(C(=O)/C=C/c2ccc(O)c(O)c2)c(O)cc1O` [broussochalcone A], the “Disease activity index (DAI) = (fecal consistency + fecal color)/2” value in data set [1] is reported as “lower DAI than the control group”. The “colon length compared with the normal group (in words)” value in data set [2] is “colon length similar to that of the normal group”. For the same compound, in data set [3], the “decrease in body weight” value is “about 5%”. Moreover, in the data set on myeloperoxidase (MPO), the “MPO activity as compared with the normal group (in words)” value is listed as “did not exhibit significantly different MPO activity as compared with the normal group”. Moreover, in data set [4], the “histological changes in colon tissue: structure of the mucosa” value is on record as “the structure of the mucosa was maintained”. Besides, the “food intake compared with the normal group” value in data set [5] is reported as “an increase in food intake as compared with the normal group”.

`O=C(O)c1cc(/N=N/c2ccc(S(=O)(=O)Nc3ccccn3)cc2)ccc1O` [sulfasalazine, Sulfasalazine]: the “Disease activity index (DAI) = (fecal consistency + fecal color)/2” value in data set [1] is on record as “high DAI”. In addition, the “colon length shorter than that of the normal group” value in data set [2] is “about 2.8 cm”. Besides, in data set [3], the “decrease in body weight” value is recorded as “about 20%”. The “increase in MPO activity as compared with the normal group” value in the data set with myeloperoxidase (MPO) is recorded as “about 1.5 fold”. Besides, in data set [4], the “histological changes in colon tissue: goblet cells and surface epithelium” value is “had lost goblet cells and surface epithelium”; the “histological changes in colon tissue: immune cell penetration” value is given as “many immune cells had penetrated the colon tissues”; the “histological changes in colon tissue: structure of the mucosa” value was “the structure of the mucosa was partially maintained”. In addition, the “food intake compared with the normal group” value in data set [6] was “a decrease in food intake”.
